Peptide text beside a SMILES is read from it.
Assays:
ES2 cells = assay: MTT cytotoxicity assay, ES2; format: cell-based; settings: 72 h, 0.1 to 100 μM (FIG. 7)
Description: (§1) The cytotoxicity of penetrating peptides or chemotherapeutic agents, alone or in combination, was evaluated by the (3-(4,5-dimethylthiazol-2-yl)-2,5-diphenyltetrazolium bromide) tetrazolium (MTT) reduction assay. The cells were seeded in 96-well plates (100 μL/well) at a cell density defined from growth curves. After 24 hours of incubation, cells were treated with the peptides for 72 hours. The wells were rinsed two times with RPMI. After washing, 10 μl of stock MTT solution (5 mg/ml; MTT (SIGMA #M-2128) in PBS Dubecco's 1× without Ca^2+ and Mg^2+) was added to a final volume of 100 μl of culture medium. Cell lines were incubated for additional 4 hours at 37° C. under humid atmosphere with 5% (v/v) CO2. The formation of blue formazan crystals was detected under a microscope. An equal volume of 10% SDS (MERCK, #926.238) in 10 mM HCl was added to each well and the plate was placed in the incubator overnight to dissolve formazan crystals. The plates were mixed to ensure complete solubilisation of formazan crystals and absorbance was measured at 570 nm and 620 nm. The percentage of viable cells was estimated using the formula: % cell viability=ΔOD(570-620) treated/ΔOD(570-620)control×100.
ES2, IGROV-1, OVCAR8 and SKOV3 cell lines come from human ovarian cancer.
Cell-penetrating peptides (CPPs) comprising the binding site of TEAD to TAZ or YAP or of YAP to TEAD (TAZ, TEAD and YAP peptides, respectively) were chemically synthesized. The effect of the peptides on cell viability was assayed on several human ovarian cancer cell lines. All the ovarian cancer cell lines were treated for 72 h with different peptide concentrations. Cytotoxicity was analysed as described in example 2.

[1] = tested on: MP41 uveal melanoma cells; assay: MTT cytotoxicity assay, MP41; format: cell-based, human; settings: 72 h
Description: as §1
MP41, MP46 and MP66 cell lines come from uveal melanoma patient derived xenografts. They were cultured in RPMI medium supplemented with 20% of FCS.
All the uveal melanoma cell lines were treated for 72 h with different concentrations of the peptides TAZ, “LV”, YAP and TEAD (SEQ ID NO: 35, 36, 37). Cytotoxicity was analysed as described in example 2. […] The best effect was shown in MP41 with about 40% cytotoxicity at 100 μM.

[2] = tested on: MP46 uveal melanoma cells; format: cell-based, human; settings: 72 h
Description: as §1, with “treated/ΔOD(570-620)control×100. […]” for “treated/ΔOD(570-620)control×100.”
(§2) All the uveal melanoma cell lines were treated for 72 h with different concentrations of the peptides TAZ, “LV”, YAP and TEAD (SEQ ID NO: 35, 36, 37). Cytotoxicity was analysed as described in example 2. […]

[3] = tested on: colon, lung and ovarian cancer cell lines; assay: MTT cytotoxicity, comparison of TAZ LV and VL peptides; format: cell-based, human; settings: all lines tested except ES2: HCT116, HT29, SW480, OVCAR8, A549, HT1975; 72 h; 0.1 to 100 μM (FIGS. 5 to 8)
Description: as §1

[4] = tested on: MP66 uveal melanoma cells; assay: MTT cytotoxicity assay, MP66; format: cell-based, human; settings: MM66 (so in the source); 100 μM; 72 h
Description: as §1, with “treated/ΔOD(570-620)control×100. […]” for “treated/ΔOD(570-620)control×100.”
as §2

Compound	effect on cellular viability, TAZ “LV” compared with TAZ “VL” (ES2 cells)	viability ([1]; human, 25 µM)	viability ([2]; human, 25 µM)	effect on cellular viability, TAZ “LV” compared with TAZ “VL” [3]	IC50 [1] [µM]	IC50 [2] [µM]	cytotoxicity [4] [%]
CC[C@H](C)[C@H](NC(=O)[C@H](CCCCN)NC(=O)[C@H](CCCCN)NC(=O)[C@H](CCCCN)NC(=O)[C@H](CCCCN)NC(=O)[C@@H](N)C(C)C)C(=O)N[C@@H](CCCCN)C(=O)N[C@@H](C)C(=O)N[C@@H](CCC(=O)O)C(=O)N[C@H](C(=O)N[C@@H](CCCCN)C(=O)N[C@H](C(=O)N1CCC[C@H]1C(=O)N1CCC[C@H]1C(=O)N[C@@H](Cc1c[nH]cn1)C(=O)N[C@@H](C)C(=O)N[C@@H](Cc1ccccc1)C(=O)N[C@@H](Cc1ccccc1)C(=O)N[C@@H](CC(C)C)C(=O)N[C@H](C(=O)N[C@@H](CCCCN)C(=O)N[C@@H](Cc1ccccc1)C(=O)N[C@@H](Cc1c[nH]c2ccccc12)C(=O)N[C@@H](C)C(=O)N[C@@H](CC(=O)O)C(=O)N[C@@H](CC(C)C)C(=O)N[C@@H](CC(N)=O)C(=O)N[C@@H](Cc1c[nH]c2ccccc12)C(=O)NCC(=O)N1CCC[C@H]1C(=O)N[C@@H](CO)C(=O)NCC(=O)N[C@@H](CCC(=O)O)C(=O)N[C@@H](CCC(=O)O)C(=O)N[C@@H](C)C(=O)NCC(=O)N[C@@H](C)C(=O)NCC(=O)O)C(C)C)[C@@H](C)CC)[C@@H](C)CC [TAZ “LV”] (H-VKKKKIKAEIKIPPHAFFLVKFWADLNWGPSGEEAGAG-OH; N-terminus and C-terminus assumed)	more effective than TAZ “VL”	about 20%	about 20%	same effect			
CC[C@H](C)[C@H](NC(=O)[C@H](CCCCN)NC(=O)[C@H](CCCCN)NC(=O)[C@H](CCCCN)NC(=O)[C@H](CCCCN)NC(=O)[C@@H](N)C(C)C)C(=O)N[C@@H](CCCCN)C(=O)N[C@@H](C)C(=O)N[C@@H](CCC(=O)O)C(=O)N[C@H](C(=O)N[C@@H](CCCCN)C(=O)N[C@H](C(=O)N[C@@H](CCCNC(=N)N)C(=O)N[C@@H](CC(C)C)C(=O)N[C@@H](CCC(N)=O)C(=O)N[C@@H](CC(C)C)C(=O)N[C@H](C(=O)N[C@@H](CCC(=O)O)C(=O)N[C@@H](Cc1ccccc1)C(=O)N[C@@H](CO)C(=O)N[C@@H](C)C(=O)N[C@@H](Cc1ccccc1)C(=O)N[C@H](C(=O)N[C@@H](CCC(=O)O)C(=O)N1CCC[C@H]1C(=O)N1CCC[C@H]1C(=O)N[C@@H](CC(=O)O)C(=O)N[C@@H](C)C(=O)N[C@H](C(=O)N[C@@H](CC(=O)O)C(=O)O)C(C)C)C(C)C)C(C)C)[C@@H](C)CC)[C@@H](C)CC [TEAD] (H-VKKKKIKAEIKIRLQLVEFSAFVEPPDAVD-OH; N-terminus and C-terminus assumed)					35	44	60
